Laboratory results: US20160115540A1, “PRODRUGS AND DRUGS” (Biogen MA Inc., priority 2013, published 2016)
Counter-ions that a name gives are not always drawn.

Tests used:
cerebellum = experiment: Transcriptional profiling on Affymetrix GeneChips, single dose, naïve mice: cerebellum; format: in vivo, C57BL/6 mice; details: for Number of differentially expressed genes identified: Cerebellum: Naïve, Single Dose
Experimental: In vivo, DMF is rapidly metabolized to monomethyl fumarate (MMF).
Animals were exposed to CO2 and whole blood collected via cardiac puncture. Two 100 μl aliquots of whole blood were collected in 1.5 mL microcentrifuge tubes and snap frozen in liquid nitrogen. Peripheral (liver, spleen, kidney and jejunum) and CNS brain (cerebellum, hippocampus, striatum and cortex) tissues were harvested and snap frozen in liquid nitrogen, with special care taken to collect tissues of similar size and from the same location. All samples were stored at −80° C. until RNA extraction was conducted.
For RNA preparation, frozen tissues were placed in 2 mL RNAse-free 96-well blocks with 1.5 mL QIAzol Lysis Reagent (QIAgen) and a 3.2 mm stainless steel bead (BioSpec Products, Bartlesville, Okla.). Tissues were disrupted for four cycles of 45 seconds in a Mini-Beadbeater (Biospec Products). RNA was extracted in chloroform and the aqueous phase was mixed with an equal volume of 70% ethanol. Extracted RNA was applied to RNeasy 96 plates and purified by the spin method according to the manufacturer's protocol (RNeasy 96 Universal Tissue Protocol, QIAgen, Hilden Germany).
Automated sample amplifications and biotin labelings were carried out using the NuGEN Ovation RNA Amplification system V2 (Cat #3100), Ovation WB reagent (Cat #1300) and Encore Biotin module (Cat #4200) (NuGEN Technologies, Inc, San Carlos, Calif.) according to manufacturer's recommendations using an Arrayplex automated liquid handler (Beckman Coulter, Indianapolis, Ind.). Two micrograms of biotin labeled sscDNA probe were hybridized to Affymetrix GeneChip Affymetrix HT_MG-430_PM plate arrays with modified conditions as described in Allaire et al. Washing and staining of the hybridized arrays were completed as described in the GeneChip Expression analysis technical manual for HT plate arrays using the Genechip® Array Station (Affymetrix, Santa Clara, Calif.) with modifications as described in Allaire et al. The processed GeneChip® plate arrays were scanned using GeneTitan scanner (Affymetrix, Santa Clara, Calif.).
Affymetrix scans were subject to quality control (QC) measures. These tests included a visual inspection of the distribution of raw signal intensities and an assessment of RNA degradation, relative log expression (RLE), and normalized unsealed standard error (NUSE). All sample scans that passed these QC metrics were included in the analysis.
All CEL files were subjected to GC-content-based Robust Multi-array Average (GCRMA) normalization (version 2.20.0) (Irizarry R A, et al. Nucleic Acids Res 2003; 31:e15; Li C, et al. Genome Biol 2001; 2:[…]0032). Expression levels were log (base 2) transformed.
All calculations and analyses were carried out using R (version 2.11.1) and Bioconductor computational tools (Gentleman R. Springer Science+Business Media 2005).

brain = experiment: Transcriptional profiling, chronic dosing, EAE mice: brain; format: in vivo
Text: EAE induction is generally performed by immunization with brain extracts, CNS proteins (such as myelin basic protein), or peptides from such protein emulsified in an adjuvant such as complete Freund's adjuvant, e.g., as described in Linker et al., Brain. 2011 March 134(Pt3): 678-92. […] FIG. 17 depicts exemplary immunophenotyping panels used to analyze various immune cell populations (e.g., T cells, T regulatory cells, NK cells, B cells, myeloid cells). […] The number of independent mice whose tissues were harvested for transcript profiling studies and whose data passed QC is shown in TABLE 15. Animals were exposed to CO2 and whole blood collected via cardiac puncture. Two 100 μl aliquots of whole blood were collected in 1.5 mL microcentrifuge tubes and snap frozen in liquid nitrogen. Peripheral (liver, spleen, kidney and jejunum) and CNS brain (cerebellum, hippocampus, striatum and cortex) tissues were harvested and snap frozen in liquid nitrogen, with special care taken to collect tissues of similar size and from the same location. All samples were stored at -80° C. until RNA extraction was conducted. For RNA preparation, frozen tissues were placed in 2 mL RNAse-free 96-well blocks with 1.5 mL QIAzol Lysis Reagent (QIAgen) and a 3.2 mm stainless steel bead (BioSpec Products, Bartlesville, Okla.). Tissues were disrupted for four cycles of 45 seconds in a Mini-Beadbeater (Biospec Products). RNA was extracted in chloroform and the aqueous phase was mixed with an equal volume of 70% ethanol. Extracted RNA was applied to RNeasy 96 plates and purified by the spin method according to the manufacturer's protocol (RNeasy 96 Universal Tissue Protocol, QIAgen, Hilden Germany). […] Washing and staining of the hybridized arrays were completed as described in the GeneChip Expression analysis technical manual for HT plate arrays using the Genechip® Array Station (Affymetrix, Santa Clara, Calif.) with modifications as described in […] et al. The processed GeneChip® plate arrays were scanned using GeneTitan scanner (Affymetrix, Santa Clara, Calif.). Affymetrix scans were subject to quality control (QC) measures. These tests included a visual inspection of the distribution of raw signal intensities and an assessment of RNA degradation, relative log expression (RLE), and normalized unscaled standard error (NUSE). All sample scans that passed these QC metrics were included in the analysis. All CEL files were subjected to GC-content-based Robust Multi-array Average (GCRMA) normalization (version 2.20.0) (Irizarry R A, et al. Nucleic Acids Res 2003; 31:e15; Li C, et al. Genome Biol 2001; 2:[…]0032). […] Stat Appl Genet Mol Biol 2004; 3:Article3). […] Springer Science+Business Media 2005). Changes in gene expression were studied by applying a linear modeling approach to fit gene expression levels according to the defined groups of samples (e.g. DMF-, MMF-, and Vehicle-treated animals) and Bayesian posterior error analysis as implemented by Smyth (Smyth G K. Stat Appl Genet Mol Biol 2004; 3:Article3). The comparisons considered included: DMF-vs-MMF, DMF-vs-Vehicle, MMF-vs-Vehicle, and Vehicle-vs-Naïve.

[1] = 100 mpk, vs Vehicle, 2 h after last dosing
[2] = 100 mpk, vs Vehicle, 7 h after last dosing
[3] = 100 mpk, vs Vehicle, 12 h after last dosing
[4] = cerebellum, 100MMF-vs-Veh, 12 h

COC(=O)/C=C/C(=O)O [MMF, monomethyl fumarate] was tested, and the “Number of differentially expressed genes identified: Cerebellum” value (“Number of differentially … Cerebellum” for short) (cerebellum; [1]) was 2, the “Number of differentially … Cerebellum” value (cerebellum; [2]) was 0 and the “Number of differentially … Cerebellum” value (cerebellum; [3]) was 3. For the same compound, the “FC Csnk2a1 (1419034_PM_at)” value (cerebellum; cerebellum, 100MMF-vs-Veh, 2 h) was −1.65, the “FC Trak2 (1429607_PM_at)” value (cerebellum; cerebellum, 100MMF-vs-Veh, 2 h) was −1.55 and the “FC Hif3a (1425428_PM_at)” value (cerebellum; [4]) was 1.58. For the same compound, the “FC Pnpla7 (1451361_PM_a_at)” value (cerebellum; [4]) was 1.52, the “FC Vnn1 (1447845_PM_s_at)” value (cerebellum; [4]) was 1.83 and the “Number of differentially expressed genes identified: Brain” value (“Number of differentially … Brain” below) (brain; 90 mpk MMF-vs-Vehicle, 7 h after last dosing) was 158. For the same compound, the “Number of differentially … Brain” value (brain; 90 mpk MMF-vs-Vehicle, 12 h after last dosing) was 0.
COC(=O)/C=C/C(=O)OC [DMF, dimethyl fumarate] was tested, and the “Number of differentially … Cerebellum” value (cerebellum; 100 mpk DMF-vs-100 mpk MMF, 2 h after last dosing) was 0, the “Number of differentially … Cerebellum” value (cerebellum; 100 mpk DMF-vs-100 mpk MMF, 7 h after last dosing) was 0 and the “Number of differentially … Cerebellum” value (cerebellum; 100 mpk DMF-vs-100 mpk MMF, 12 h after last dosing) was 0. For the same compound, the “Number of differentially … Cerebellum” value (cerebellum; [1]) was 0, the “Number of differentially … Cerebellum” value (cerebellum; [2]) was 0 and the “Number of differentially … Cerebellum” value (cerebellum; [3]) was 0. For the same compound, the differentially expressed genes (cerebellum; cerebellum, 100DMF-vs-100MMF, 2 h) was “None”, the differentially expressed genes (cerebellum; cerebellum, 100DMF-vs-100MMF, 7 h) was “None” and the differentially expressed genes (cerebellum; cerebellum, 100DMF-vs-100MMF, 12 h) was “None”. The differentially expressed genes (cerebellum; cerebellum, 100DMF-vs-Veh, 2 h) was “None”, the differentially expressed genes (cerebellum; cerebellum, 100DMF-vs-Veh, 7 h) was “None” and the differentially expressed genes (cerebellum; cerebellum, 100DMF-vs-Veh, 12 h) was “None”. For the same compound, the “Number of differentially … Brain” value (brain; 100 mpk DMF-vs-90 mpk MMF, 7 h after last dosing) was 31, the “Number of differentially … Brain” value (brain; 100 mpk DMF-vs-90 mpk MMF, 12 h after last dosing) was 0 and the “Number of differentially … Brain” value (brain; 100 mpk DMF-vs-Vehicle, 7 h after last dosing) was 6. For the same compound, the “Number of differentially … Brain” value (brain; 100 mpk DMF-vs-Vehicle, 12 h after last dosing) was 0.
